Results reported in patent US11872313B2, “Prodrug compositions, prodrug nanoparticles, and methods of use thereof” (Washington University, priority 2010, dated 2024).
Entries after “also recorded” stand apart in the source; their conditions may differ.

Key:
Vx2 tumor = Vx2 tumor model, angiogenesis MR contrast enhancement; type: in vivo, rabbit; conditions: 1.5 T, FIG. 4A
[1] = In vitro release of fumagillin dissolved in a lipid membrane; type: physicochemical; conditions: FIG. 19A
Source text: (§1) FIG. 19A and FIG. 19B depicts two graphs illustrating that fumagillin dissolved in a lipid membrane is stable in vitro but rapidly lost in vivo.

[2] = In vivo release of fumagillin dissolved in a lipid membrane; conditions: FIG. 19B
Source text: as §1

| Structure (SMILES) | change in angiogenesis contrast enhancement (Vx2 tumor) | In vitro release of fumagillin [1] | In vivo release of fumagillin [2] |
| --- | --- | --- | --- |
| CC(=O)O[C@H]1C(=O)[C@@]2(C)[C@H]([C@H](OC(=O)c3ccccc3)[C@]3(O)C[C@H](OC(=O)[C@H](O)[C@@H](NC(=O)c4ccccc4)c4ccccc4)C(C)=C1C3(C)C)[C@]1(OC(C)=O)CO[C@@H]1C[C@@H]2O [non-prodrug paclitaxel, paclitaxel] | non-significant change |  |  |
| CO[C@@H]1[C@H](OC(=O)/C=C/C=C/C=C/C=C/C(=O)O)CC[C@]2(CO2)[C@H]1[C@@]1(C)O[C@@H]1CC=C(C)C [fumagillin] |  | sustained over 4 days | rapidly releases in vivo; also recorded: occurs in a matter of minutes |
